In patent publication US8293791B2, “Method of neuroprotection by pharmacological inhibition of AMP-activated protein kinase” (priority 2004, dated 2012):
Entries after “also recorded” stand apart in the source; their conditions may differ. Where two headings read alike, the source gives them in different places.

Assays:
[1] = system: AMPKα phosphorylation (pAMPK); assay: Western blot analysis of pAMPK levels in brain hemispheres after MCAO or sham surgery; assay type: in vivo, mouse
Procedure: Cerebral ischemia was induced by 120 minutes of reversible right middle cerebral artery occlusion (MCAO) under halothane anesthesia followed by reperfusion for various times for male C57B6 mice (Charles River) or male rats, as described by McCullough, et al., Stroke, 32, 796-802 (2001) and McCullough, et al., J. Neuroscience, 24, pp. 257-268 (2004), respectively. Intra-ischemic and 22 hour post-reperfusion neurological deficits (NDS) were scored as follows: 0, no deficit; 1, forelimb weakness and torso turning to the ipsilateral side when held by tail; 2, circling to affected side; 3, unable to bear weight on affected side; and 4, no spontaneous locomotor activity or barrel rolling. Any animal without deficit was excluded from the study. At end-ischemia, the animal was briefly re-anaesthetized and reperfusion was initiated by filament withdrawal. Sham animals were subjected to the equivalent surgical preparation, but the suture was not advanced into the internal carotid. For the pharmacological neuroprotection studies, mice survived 22 hours after reperfusion, at which time behavioral scoring was done. The brain was then harvested for pathological examination with TTC histology (see Histopathology section). In separate animal cohorts, physiological measurements, femoral arterial blood pressure and cortical perfusion (laser Doppler flowmetry) were evaluated throughout MCAO and early reperfusion as described in the 2001 McCullough paper referenced above. Additional animals were exposed to ischemia or sham surgery after pharmacological or vehicle treatment and were sacrificed at 4 or 24 hours for Western blot analysis. Male nNOS and PARP-1 deficient mice (see, Huang, et al., Science, 265, 1883-1885 (1994); Eliasson, et al, Nat. Med, 3, 1089-1095 (1997)) were subjected to 2-hour right MCAO or sham surgery and compared to additional WT cohorts (C57-BL6 for nNOS−/− and SVEV for PARP−/−). Mouse and rat stroke and sham brain samples were obtained by rapid removal of the brain from the skulk resection of the cerebellum, followed by immediate dissection into the right (R) and left (L) hemispheres. Samples were flash frozen in liquid nitrogen. Samples from rats were further sub-dissected into core and penumbral regions for both hemispheres. Samples were stored at −80° C. until use. […] SDS detergent was added to a final concentration of 0.2%, and lysates were boiled for 5 min. After the supernatant was harvested, protein concentration was determined using a BCA kit (Bio Rad). 40 μg of protein was loaded per lane on a 4-15% gradient SDS-polyacrylamide gel, and transferred to a polyvinylidene difluoride membrane. Blots were successively probed, stripped and reprobed for antigen detection. Phosphorylation of AMPKα was determined using an anti-phospho-AMPKα (α1 and α2 Thr) antibody (1:1000, Cell Signaling). ACC (1:500), p-ACC (1:1000), pAkt (1:500), and Akt (1:500) antibodies were obtained from Upstate, Lake Placid, N.Y. Anti-AMPKα antibody (anti-α1 and α2, 1:1000; Cell Signaling), hsp-70 (1:1000; Santa Cruz), and β-actin (1:5000; Sigma) were used as loading controls. All blots were incubated overnight in primary antibody at 4° C. in TBS buffer containing 5% BSA and 0.1% Triton-X-100. The secondary antibody (goat anti-rabbit IgG, Chemicon) was diluted to 1:5,000, and ECL (pico) detection kit was used for signal detection.

[2] = system: male C57B6 mice; assay: Infarction volume (TTC staining) after 2-hr reversible MCAO with 22 hr reperfusion; assay type: in vivo, mouse
Procedure: Cerebral ischemia was induced by 120 minutes of reversible right middle cerebral artery occlusion (MCAO) under halothane anesthesia followed by reperfusion for various times for male C57B6 mice (Charles River) or male rats, as described by McCullough, et al., Stroke, 32, 796-802 (2001) and McCullough, et al., J. Neuroscience, 24, pp. 257-268 (2004), respectively. Intra-ischemic and 22 hour post-reperfusion neurological deficits (NDS) were scored as follows: 0, no deficit; 1, forelimb weakness and torso turning to the ipsilateral side when held by tail; 2, circling to affected side; 3, unable to bear weight on affected side; and 4, no spontaneous locomotor activity or barrel rolling. Any animal without deficit was excluded from the study. At end-ischemia, the animal was briefly re-anaesthetized and reperfusion was initiated by filament withdrawal. Sham animals were subjected to the equivalent surgical preparation, but the suture was not advanced into the internal carotid. For the pharmacological neuroprotection studies, mice survived 22 hours after reperfusion, at which time behavioral scoring was done. The brain was then harvested for pathological examination with TTC histology (see Histopathology section). In separate animal cohorts, physiological measurements, femoral arterial blood pressure and cortical perfusion (laser Doppler flowmetry) were evaluated throughout MCAO and early reperfusion as described in the 2001 McCullough paper referenced above. Additional animals were exposed to ischemia or sham surgery after pharmacological or vehicle treatment and were sacrificed at 4 or 24 hours for Western blot analysis. Male nNOS and PARP-1 deficient mice (see, Huang, et al., Science, 265, 1883-1885 (1994); Eliasson, et al, Nat. Med, 3, 1089-1095 (1997)) were subjected to 2-hour right MCAO or sham surgery and compared to additional WT cohorts (C57-BL6 for nNOS−/− and SVEV for PARP−/−). Infarction volume was analyzed by 2,3,5-triphenyltetrazolium staining in five 2-mm slices. Infarction volume was determined by video microscopy and image analysis (Inquiry 3, Loats Associates), as previously described by McCullough, et al., J. Neuroscience 23, pp. 8701-8705 (2003). All data are expressed as mean±SEM. Physiological variables and histology were analyzed by 1-way ANOVA with a post-hoc Newman-Keuls to correct for multiple comparisons. Post-ischemic neurological scores were analyzed by the Mann-Whitney U test. Values were considered statistically significant at *, p<0.05; **, p<0.01; ***, p<0.001

[3] = system: male C57B6 mice; settings: mouse, in vivo
[4] = system: male C57B6 mice; assay: Neurological deficit score (NDS) after MCAO; assay type: in vivo, mouse
Procedure: Cerebral ischemia was induced by 120 minutes of reversible right middle cerebral artery occlusion (MCAO) under halothane anesthesia followed by reperfusion for various times for male C57B6 mice (Charles River) or male rats, as described by McCullough, et al., Stroke, 32, 796-802 (2001) and McCullough, et al., J. Neuroscience, 24, pp. 257-268 (2004), respectively. Intra-ischemic and 22 hour post-reperfusion neurological deficits (NDS) were scored as follows: 0, no deficit; 1, forelimb weakness and torso turning to the ipsilateral side when held by tail; 2, circling to affected side; 3, unable to bear weight on affected side; and 4, no spontaneous locomotor activity or barrel rolling. Any animal without deficit was excluded from the study. At end-ischemia, the animal was briefly re-anaesthetized and reperfusion was initiated by filament withdrawal. […] In separate animal cohorts, physiological measurements, femoral arterial blood pressure and cortical perfusion (laser Doppler flowmetry) were evaluated throughout MCAO and early reperfusion as described in the 2001 McCullough paper referenced above. […]
All data are expressed as mean±SEM. Physiological variables and histology were analyzed by 1-way ANOVA with a post-hoc Newman-Keuls to correct for multiple comparisons. Post-ischemic neurological scores were analyzed by the Mann-Whitney U test. […]

[5] = system: male C57B6 mice; assay: Physiological measurements, arterial blood pressure and laser Doppler flow during MCAO and early reperfusion; settings: for MAP: averaged over the 2 hours of ischemia (all); for MAP / LDF (% BL) / HCO3 / Hg / PCO2 / PO2 / Ph: n=4/group; for LDF (% BL) / HCO3 / Hg / PCO2 / PO2 / Ph: intra-ischemic; for LDF (% BL): averaged over the 2 hours of ischemia

**Q.** Which “pAMPK by 24 hr” value ([1]; AICAR treated animals) does the source give for `NC(=O)c1ncn([C@@H]2O[C@H](CO)[C@@H](O)[C@H]2O)c1N` [AICAR, 5-aminoimidazole-4-carboxamide ribonucleoside] here?
**A.** returned to baseline

**Q.** What about the “pAMPK 4 hr following stroke (2 hours of reperfusion)” value ([1]; AICAR treated vs vehicle treated animals) of the same compound?
**A.** elevations

**Q.** And the “total and cortical (CTX) stroke volumes” value ([2]; AICAR 500 mg/kg i.p. at stroke onset, vs vehicle)?
**A.** significant exacerbation

**Q.** What about the “CBF at 30 minutes after reperfusion” value [3] of the same compound?
**A.** 82.7 % of baseline

**Q.** And the HCO3 [3]?
**A.** 22.9 ± 2.3

**Q.** What about the Hg [3] of the same compound?
**A.** 13.4 ± 0.9

**Q.** And the “LDF (% BL)” value [3]?
**A.** 11.1 ± 1.2 % BL

**Q.** And the MAP [3]?
**A.** 77.7 ± 7.3 (all)

**Q.** What about the PCO2 [3] of the same compound?
**A.** 39.7 ± 4.9

**Q.** And the PO2 [3]?
**A.** 128 ± 15.2

**Q.** What about the Ph [3] of the same compound?
**A.** 7.33 ± 0.11

**Q.** And the “intraischemic CBF, vs controls” value [3]?
**A.** no differences

**Q.** What about the “mean arterial pressure (MAP) at 15 minutes after injection” value [3] of the same compound?
**A.** 69 mmHg

**Q.** For `C=C1C(=O)OC(CCCCCCCC)C1C(=O)O` (stereo not drawn) [C75], which “behavioral scores (score 0-4)” value ([4]; C75 20 mg/kg i.p. immediately prior to onset of ischemia, vehicle 3.2±0.05) is on record?
**A.** 2.0±0.03

**Q.** And the “increase in pAMPK levels at 4 hr (2 hr of reperfusion)” value ([1]; C75 treated mice vs vehicle, 2-hour MCAO)?
**A.** blunted

**Q.** And the “pAMPK levels 24 hr following stroke” value ([1]; C75 treated vs vehicle, both sham and stroke mice)?
**A.** reduced; also recorded: Reductions

**Q.** And the “LDF or physiological variables, vs vehicle” value ([5]; C75 20 mg/kg i.p., n=4)?
**A.** no differences

**Q.** What about the MAP [5] of the same compound?
**A.** 79.1 ± 6.5

**Q.** And the “LDF (% BL)” value [5]?
**A.** 10.6 ± 0.88 % BL

**Q.** What about the HCO3 [5] of the same compound?
**A.** 22.8 ± 1.2

**Q.** What about the Hg [5] of the same compound?
**A.** 12.9 ± 0.5

**Q.** What about the PCO2 [5] of the same compound?
**A.** 47 ± 7.1

**Q.** And the PO2 [5]?
**A.** 135 ± 14.2

**Q.** What about the Ph [5] of the same compound?
**A.** 7.34 ± 0.08

**Q.** And the “total and regional infarction volume” value ([2]; C75 20 mg/kg i.p. immediately prior to onset of ischemia, vs vehicle (RPMI), p<0.001)?
**A.** significant reduction

**Q.** Which “severity of behavioral deficits at 24 hours (score 0-4)” value ([4]; Compound C 20 mg/kg i.p. at stroke onset, vehicle 3.3±0.3) does the source give for `c1cc(-c2cnn3cc(-c4ccc(OCCN5CCCCC5)cc4)cnc23)ccn1` [Compound C] here?
**A.** 1.9±0.2

**Q.** And the “pAMPK levels 4 hr after infarction (2 hours of reperfusion)” value ([1]; Compound C treated mice vs vehicle, 2 hours MCAO)?
**A.** reduced

**Q.** What about the “relative cerebral blood flow (CBF) by laser Doppler, intraischemic and during the 30 minutes after reperfusion, vs vehicle” value ([5]; Compound C 20 mg/kg i.p.) of the same compound?
**A.** no difference

**Q.** What about the “relative cerebral blood flow (CBF) by laser Doppler, intraischemic period” value ([5]; Compound C 20 mg/kg i.p., vehicle 9.8±0.54, p=n.s.) of the same compound?
**A.** 10.6±0.9 % of baseline

**Q.** And the MAP [5]?
**A.** 82.2 ± 5.9

**Q.** What about the “LDF (% BL)” value [5] of the same compound?
**A.** 10.6 ± 0.9 % BL

**Q.** What about the HCO3 [5] of the same compound?
**A.** 23.1 ± 0.08

**Q.** And the Hg [5]?
**A.** 12.7 ± 1.3

**Q.** And the PCO2 [5]?
**A.** 42.1 ± 3.1

**Q.** And the PO2 [5]?
**A.** 144.6 ± 14.3

**Q.** What about the Ph [5] of the same compound?
**A.** 7.36 ± 0.07

**Q.** And the “cortical (CTX) infarct volume” value ([2]; Compound C 20 mg/kg i.p. at stroke onset, 2-hr MCAO, 22 hr reperfusion, vehicle 63±3.4)?
**A.** 19.4±3.3 % non-ischemic hemisphere

**Q.** What about the “striatal (CP) infarct volume” value ([2]; Compound C 20 mg/kg i.p. at stroke onset, 2-hr MCAO, 22 hr reperfusion, vehicle 64±5.7) of the same compound?
**A.** 21±3.9 % non-ischemic hemisphere

**Q.** And the total infarct volume ([2]; Compound C 20 mg/kg i.p. at stroke onset, 2-hr MCAO, 22 hr reperfusion, vs vehicle)?
**A.** significantly reduced
